In US6642392B1 (priority 1997, dated 2003):

Assays:
Type in all cases: in vivo
Botrytis cinerea = assay: Test E: gray mold, preventive spray on cucumber seedlings; details: cucumber seedlings sprayed to run-off, inoculated the following day; rating relative to controls; unmarked compounds (standard test rate)
Summary of the method: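 Preventive spray on cucumber seedlings used a suspension (3% acetone, 250 ppm Trem 014), applied to run-off one day before inoculation with Botrytis cinerea spores. Plants were held 48 h at 20° C in saturated air, then 5 days at 20° C. Percent disease control was scored relative to untreated plants.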

Phytophthora infestans = details: tomato seedlings sprayed to run-off, inoculated the following day; rating relative to controls; unmarked compounds (standard test rate)
Pyricularia oryzae = details: rice seedlings sprayed to run-off, inoculated the following day; rating relative to controls; unmarked compounds (standard test rate)
Puccinia recondita = assay: Test B: wheat leaf rust, preventive spray on wheat seedlings; details: wheat seedlings sprayed to run-off, inoculated the following day; rating relative to controls; unmarked compounds (standard test rate)
Summary of the method: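 Preventive test: P. recondita spores were applied one day after a run-off spray of compound suspension on wheat seedlings. Plants had 24 h at 20 °C in saturated air plus 6 days in a 20 °C growth chamber. Scoring is % disease control (100 = full) relative to controls.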

[1] = tested on: Eiysiphe graminis f. sp. tritici; assay: Test A: wheat powdery mildew, preventive spray on wheat seedlings; details: wheat seedlings sprayed to run-off, inoculated the following day; rating relative to controls; unmarked compounds (standard test rate)
Summary of the method: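 Preventive test: seedlings inoculated with powdery mildew spores one day after run-off spraying of a suspension. Ratings after 7 days in a 20° C growth chamber express percent disease control versus controls.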

SMILES: C=CCC(C#N)C(=O)NC(C)C(Oc1cc(F)ccc1C#N)c1ccccc1 (mixture of isomers) [compound 284]
- Test E disease control rating (100 = 100% disease control, 0 = no disease control) (Botrytis cinerea): 0%
- Test D disease control rating (100 = 100% disease control, 0 = no disease control) (Phytophthora infestans): 0%
- Test C disease control rating (100 = 100% disease control, 0 = no disease control) (Pyricularia oryzae): 99%
- Test B disease control rating (100 = 100% disease control, 0 = no disease control) (Puccinia recondita): 0%
- Test A disease control rating (100 = 100% disease control, 0 = no disease control) [1]: 0%

SMILES: C=CCC(C#N)C(=O)NC(C)C(Oc1ccccc1C#N)c1ccccc1 (mixture of isomers) [compound 285]
- Test E disease control rating (100 = 100% disease control, 0 = no disease control) (Botrytis cinerea): 0%
- Test D disease control rating (100 = 100% disease control, 0 = no disease control) (Phytophthora infestans): 0%
- Test C disease control rating (100 = 100% disease control, 0 = no disease control) (Pyricularia oryzae): 97%
- Test B disease control rating (100 = 100% disease control, 0 = no disease control) (Puccinia recondita): 0%
- Test A disease control rating (100 = 100% disease control, 0 = no disease control) [1]: 59%

SMILES: CCC(C#N)C(=O)NC(C)C(Oc1cc(F)ccc1C#N)c1ccccc1 (mixture of isomers) [compound 286]
- Test E disease control rating (100 = 100% disease control, 0 = no disease control) (Botrytis cinerea): 0%
- Test D disease control rating (100 = 100% disease control, 0 = no disease control) (Phytophthora infestans): 0%
- Test C disease control rating (100 = 100% disease control, 0 = no disease control) (Pyricularia oryzae): 99%
- Test B disease control rating (100 = 100% disease control, 0 = no disease control) (Puccinia recondita): 0%
- Test A disease control rating (100 = 100% disease control, 0 = no disease control) [1]: 76%

SMILES: CCCC(C#N)C(=O)NC(C)C(Oc1cc(F)ccc1C#N)c1ccccc1 (mixture of isomers) [compound 287]
- Test E disease control rating (100 = 100% disease control, 0 = no disease control) (Botrytis cinerea): 0%
- Test D disease control rating (100 = 100% disease control, 0 = no disease control) (Phytophthora infestans): 23%
- Test C disease control rating (100 = 100% disease control, 0 = no disease control) (Pyricularia oryzae): 97%
- Test B disease control rating (100 = 100% disease control, 0 = no disease control) (Puccinia recondita): 0%
- Test A disease control rating (100 = 100% disease control, 0 = no disease control) [1]: 0%

SMILES: CCCC(C#N)C(=O)NC(C)C(Oc1ccccc1C#N)c1ccccc1 (mixture of isomers) [compound 288]
- Test E disease control rating (100 = 100% disease control, 0 = no disease control) (Botrytis cinerea): 0%
- Test D disease control rating (100 = 100% disease control, 0 = no disease control) (Phytophthora infestans): 0%
- Test C disease control rating (100 = 100% disease control, 0 = no disease control) (Pyricularia oryzae): 86%
- Test B disease control rating (100 = 100% disease control, 0 = no disease control) (Puccinia recondita): 0%
- Test A disease control rating (100 = 100% disease control, 0 = no disease control) [1]: 33%

SMILES: CC(C)C(C#N)C(=O)NC(C)C(Oc1cc(F)ccc1C#N)c1ccccc1 (mixture of isomers) [compound 289]
- Test E disease control rating (100 = 100% disease control, 0 = no disease control) (Botrytis cinerea): 0%
- Test D disease control rating (100 = 100% disease control, 0 = no disease control) (Phytophthora infestans): 45%
- Test C disease control rating (100 = 100% disease control, 0 = no disease control) (Pyricularia oryzae): 90%
- Test B disease control rating (100 = 100% disease control, 0 = no disease control) (Puccinia recondita): 0%
- Test A disease control rating (100 = 100% disease control, 0 = no disease control) [1]: 0%

SMILES: CC(C)C(C#N)C(=O)NC(C)C(Oc1ccccc1C#N)c1ccccc1 (mixture of isomers) [compound 290]
- Test E disease control rating (100 = 100% disease control, 0 = no disease control) (Botrytis cinerea): 0%
- Test D disease control rating (100 = 100% disease control, 0 = no disease control) (Phytophthora infestans): 0%
- Test C disease control rating (100 = 100% disease control, 0 = no disease control) (Pyricularia oryzae): 90%
- Test B disease control rating (100 = 100% disease control, 0 = no disease control) (Puccinia recondita): 0%
- Test A disease control rating (100 = 100% disease control, 0 = no disease control) [1]: 59%

SMILES: CC(NC(=O)C(C#N)C(C)(C)C)C(Oc1ccccc1C#N)c1ccccc1 (mixture of isomers) [compound 291]
- Test E disease control rating (100 = 100% disease control, 0 = no disease control) (Botrytis cinerea): 0%
- Test D disease control rating (100 = 100% disease control, 0 = no disease control) (Phytophthora infestans): 0%
- Test C disease control rating (100 = 100% disease control, 0 = no disease control) (Pyricularia oryzae): 90%
- Test B disease control rating (100 = 100% disease control, 0 = no disease control) (Puccinia recondita): 0%
- Test A disease control rating (100 = 100% disease control, 0 = no disease control) [1]: 0%

SMILES: CC(COc1cc(F)ccc1OC(F)F)NC(=O)C(C#N)C(C)(C)C (mixture of isomers) [compound 292]
- Test E disease control rating (100 = 100% disease control, 0 = no disease control) (Botrytis cinerea): 0%
- Test D disease control rating (100 = 100% disease control, 0 = no disease control) (Phytophthora infestans): 46%
- Test C disease control rating (100 = 100% disease control, 0 = no disease control) (Pyricularia oryzae): 99%
- Test B disease control rating (100 = 100% disease control, 0 = no disease control) (Puccinia recondita): 0%
- Test A disease control rating (100 = 100% disease control, 0 = no disease control) [1]: 0%

SMILES: C=CC(C)(C)C(C#N)C(=O)NC(C)COc1cc(F)ccc1OC(F)F (mixture of isomers) [compound 294]
- Test E disease control rating (100 = 100% disease control, 0 = no disease control) (Botrytis cinerea): 0%
- Test D disease control rating (100 = 100% disease control, 0 = no disease control) (Phytophthora infestans): 24%
- Test C disease control rating (100 = 100% disease control, 0 = no disease control) (Pyricularia oryzae): 99%
- Test B disease control rating (100 = 100% disease control, 0 = no disease control) (Puccinia recondita): 0%
- Test A disease control rating (100 = 100% disease control, 0 = no disease control) [1]: 0%

SMILES: C#CC(C)(C)C(C#N)C(=O)NC(C)COc1cc(F)ccc1OC(F)F (mixture of isomers) [compound 295]
- Test E disease control rating (100 = 100% disease control, 0 = no disease control) (Botrytis cinerea): 0%
- Test D disease control rating (100 = 100% disease control, 0 = no disease control) (Phytophthora infestans): 0%
- Test C disease control rating (100 = 100% disease control, 0 = no disease control) (Pyricularia oryzae): 100%
- Test B disease control rating (100 = 100% disease control, 0 = no disease control) (Puccinia recondita): 0%
- Test A disease control rating (100 = 100% disease control, 0 = no disease control) [1]: 0%

SMILES: C=CC(C)(CC)C(C#N)C(=O)NC(C)COc1cc(F)ccc1F (mixture of isomers) [compound 296]
- Test E disease control rating (100 = 100% disease control, 0 = no disease control) (Botrytis cinerea): 0%
- Test D disease control rating (100 = 100% disease control, 0 = no disease control) (Phytophthora infestans): 24%
- Test C disease control rating (100 = 100% disease control, 0 = no disease control) (Pyricularia oryzae): 100%
- Test B disease control rating (100 = 100% disease control, 0 = no disease control) (Puccinia recondita): 0%
- Test A disease control rating (100 = 100% disease control, 0 = no disease control) [1]: 0%

SMILES: C=CC(C)(CC)C(C#N)C(=O)NC(C)COc1cc(Cl)ccc1F (mixture of isomers) [compound 297]
- Test E disease control rating (100 = 100% disease control, 0 = no disease control) (Botrytis cinerea): 0%
- Test D disease control rating (100 = 100% disease control, 0 = no disease control) (Phytophthora infestans): 46%
- Test C disease control rating (100 = 100% disease control, 0 = no disease control) (Pyricularia oryzae): 100%
- Test B disease control rating (100 = 100% disease control, 0 = no disease control) (Puccinia recondita): 0%
- Test A disease control rating (100 = 100% disease control, 0 = no disease control) [1]: 0%

SMILES: C=CC(C)(CC)C(C#N)C(=O)NC(C)COc1cc(F)ccc1Cl (mixture of isomers) [compound 298]
- Test E disease control rating (100 = 100% disease control, 0 = no disease control) (Botrytis cinerea): 0%
- Test D disease control rating (100 = 100% disease control, 0 = no disease control) (Phytophthora infestans): 99%
- Test C disease control rating (100 = 100% disease control, 0 = no disease control) (Pyricularia oryzae): 99%
- Test B disease control rating (100 = 100% disease control, 0 = no disease control) (Puccinia recondita): 0%
- Test A disease control rating (100 = 100% disease control, 0 = no disease control) [1]: 62%

SMILES: C#CC(C)(C=C)C(C#N)C(=O)NC(C)COc1cc(F)ccc1F (mixture of isomers) [compound 301]
- Test E disease control rating (100 = 100% disease control, 0 = no disease control) (Botrytis cinerea): 0%
- Test D disease control rating (100 = 100% disease control, 0 = no disease control) (Phytophthora infestans): 24%
- Test C disease control rating (100 = 100% disease control, 0 = no disease control) (Pyricularia oryzae): 100%
- Test B disease control rating (100 = 100% disease control, 0 = no disease control) (Puccinia recondita): 0%
- Test A disease control rating (100 = 100% disease control, 0 = no disease control) [1]: 62%

SMILES: C#CC(C)(C=C)C(C#N)C(=O)NC(C)COc1cc(Cl)ccc1F (mixture of isomers) [compound 302]
- Test E disease control rating (100 = 100% disease control, 0 = no disease control) (Botrytis cinerea): 0%
- Test D disease control rating (100 = 100% disease control, 0 = no disease control) (Phytophthora infestans): 24%
- Test C disease control rating (100 = 100% disease control, 0 = no disease control) (Pyricularia oryzae): 99%
- Test B disease control rating (100 = 100% disease control, 0 = no disease control) (Puccinia recondita): 0%
- Test A disease control rating (100 = 100% disease control, 0 = no disease control) [1]: 0%

SMILES: C#CC(C)(C=C)C(C#N)C(=O)NC(C)COc1cc(F)ccc1Cl (mixture of isomers) [compound 303]
- Test E disease control rating (100 = 100% disease control, 0 = no disease control) (Botrytis cinerea): 0%
- Test D disease control rating (100 = 100% disease control, 0 = no disease control) (Phytophthora infestans): 100%
- Test C disease control rating (100 = 100% disease control, 0 = no disease control) (Pyricularia oryzae): 99%
- Test B disease control rating (100 = 100% disease control, 0 = no disease control) (Puccinia recondita): 0%
- Test A disease control rating (100 = 100% disease control, 0 = no disease control) [1]: 0%
